Reference: PubChem BioAssay AID2060506 (Molecular Pharmacology Branch, DTP, NCI, 2025)

Test system: 598228-144-R-J1-PDC complex spheroid viability
Experiment: Anticancer human tumor 598228-144-R-J1-PDC patient-derived serous endometrial adenocarcinoma cell line growth inhibition [GQUAD]
Settings: for IC50: curve of first compound; for viability, T/C: stronger effect = lower value; active means viability on the fitted dose curve at most 10% of control; inactive means the rest
In short: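 Viability of tumor cells grown as complex spheroids with endothelial and stromal cells, exposed to drug combinations. Top concentration at or near clinical Cmax (else 10 microM), diluted in half-log increments.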

[1] = second compound 0.0316 µM, first compound 0.000999 µM
[2] = second compound 0.0316 µM, first compound 0.00316 µM
[3] = second compound 0.0316 µM, first compound 0.00999 µM
[4] = second compound 0.0316 µM, first compound 0.0316 µM
[5] = second compound 0.0316 µM, first compound 0.0999 µM
[6] = second compound 0.0316 µM, first compound 0.316 µM
[7] = second compound 0.1 µM, first compound 0.000999 µM
[8] = second compound 0.1 µM, first compound 0.00316 µM
[9] = second compound 0.1 µM, first compound 0.00999 µM
[10] = second compound 0.1 µM, first compound 0.0316 µM
[11] = second compound 0.1 µM, first compound 0.0999 µM
[12] = second compound 0.1 µM, first compound 0.316 µM
[13] = second compound 0.316 µM, first compound 0.000999 µM
[14] = second compound 0.316 µM, first compound 0.00316 µM
[15] = second compound 0.316 µM, first compound 0.00999 µM
[16] = second compound 0.316 µM, first compound 0.0316 µM
[17] = second compound 0.316 µM, first compound 0.0999 µM
[18] = second compound 0.316 µM, first compound 0.316 µM
[19] = second compound 1 µM, first compound 0.000999 µM
[20] = second compound 1 µM, first compound 0.00316 µM
[21] = second compound 1 µM, first compound 0.00999 µM
[22] = second compound 1 µM, first compound 0.0316 µM
[23] = second compound 1 µM, first compound 0.0999 µM
[24] = second compound 1 µM, first compound 0.316 µM
[25] = second compound 3.16 µM, first compound 0.000999 µM
[26] = second compound 3.16 µM, first compound 0.00316 µM
[27] = second compound 3.16 µM, first compound 0.00999 µM
[28] = second compound 3.16 µM, first compound 0.0316 µM
[29] = second compound 3.16 µM, first compound 0.0999 µM
[30] = second compound 3.16 µM, first compound 0.316 µM
[31] = second compound 10 µM, first compound 0.000999 µM
[32] = second compound 10 µM, first compound 0.00316 µM
[33] = second compound 10 µM, first compound 0.00999 µM
[34] = second compound 10 µM, first compound 0.0316 µM
[35] = second compound 10 µM, first compound 0.0999 µM
[36] = second compound 10 µM, first compound 0.316 µM
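Further: spheroids exposed to the agents for one week before reading.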
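Wherever viability, T/C is given: percent of vehicle DMSO control viability so 100% = untreated growth.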

CC[C@@]1(O)C(=O)OCc2c1cc1n(c2=O)Cc2cc3c(CN(C)C)c(O)ccc3nc2-1 + Cc1cnc(CNC(=O)c2c(=O)c3ccc(N4CCCN(C)CC4)nc3n3c2sc2ccccc23)cn1
> 316 nM: IC50 (second compound 0.0316 µM) | IC50 (second compound 0.1 µM) | IC50 (second compound 0.316 µM) | IC50 (second compound 1 µM) | IC50 (second compound 3.16 µM)
inactive: viability, T/C [1] 83.8% | viability, T/C [2] 107% | viability, T/C [3] 93.2% | viability, T/C [4] 81.6% | viability, T/C [5] 54.8% | viability, T/C [6] 53.9% | viability, T/C [7] 85.1% | viability, T/C [8] 80.2% | viability, T/C [9] 65.5% | viability, T/C [10] 68.7% | viability, T/C [11] 64.2% | viability, T/C [12] 63.6% | viability, T/C [13] 69.2% | viability, T/C [14] 67.9% | viability, T/C [15] 68.8% | viability, T/C [16] 78.2% | viability, T/C [17] 73.1% | viability, T/C [18] 76.6% | viability, T/C [19] 71% | viability, T/C [20] 72.9% | viability, T/C [21] 71.1% | viability, T/C [22] 68.3% | viability, T/C [23] 75.7% | viability, T/C [24] 58% | viability, T/C [25] 67.4% | viability, T/C [26] 58.6% | viability, T/C [27] 58.7% | viability, T/C [28] 52% | viability, T/C [29] 65.6% | viability, T/C [30] 59.4% | viability, T/C [31] 42.5% | viability, T/C [32] 41.2% | viability, T/C [33] 47.7% | viability, T/C [34] 52.3% | viability, T/C [35] 36% | viability, T/C [36] 40.9%
< 0.999 nM: IC50 (second compound 10 µM)

Cc1[nH]c2ccccc2c1CCNCc1ccc(/C=C/C(=O)NO)cc1 + Cc1cnc(CNC(=O)c2c(=O)c3ccc(N4CCCN(C)CC4)nc3n3c2sc2ccccc23)cn1
< 0.999 nM: IC50 (second compound 3.16 µM) | IC50 (second compound 10 µM)
54.4 nM: IC50 (second compound 0.0316 µM)
inactive: viability, T/C [1] 104% | viability, T/C [2] 116% | viability, T/C [3] 85.1% | viability, T/C [4] 67.3% | viability, T/C [5] 32.4% | viability, T/C [7] 80.7% | viability, T/C [8] 71.8% | viability, T/C [9] 61.1% | viability, T/C [10] 41.6% | viability, T/C [11] 26.2% | viability, T/C [13] 69% | viability, T/C [14] 66.9% | viability, T/C [15] 53.3% | viability, T/C [16] 43.7% | viability, T/C [17] 18.4% | viability, T/C [19] 62.7% | viability, T/C [20] 67.1% | viability, T/C [21] 49.7% | viability, T/C [22] 29.8% | viability, T/C [25] 49.4% | viability, T/C [26] 49.4% | viability, T/C [27] 39.9% | viability, T/C [31] 20.6% | viability, T/C [32] 16.2%
11.6 nM: IC50 (second compound 1 µM)
16.1 nM: IC50 (second compound 0.316 µM)
active: viability, T/C [6] 0.76% | viability, T/C [12] 0.82% | viability, T/C [18] 0.28% | viability, T/C [23] 0.26% | viability, T/C [24] 0.37% | viability, T/C [28] 0.32% | viability, T/C [29] 0.34% | viability, T/C [30] 0.25% | viability, T/C [33] 0.43% | viability, T/C [34] 0.33% | viability, T/C [35] 0.34% | viability, T/C [36] 0.31%
20.2 nM: IC50 (second compound 0.1 µM)
